# System: human cervical tumor cell line HeLa (ATCC CCL-2)
# Experiment: SAC-Formation - Nocodazole-Induced Assay
# Format: cell-based
# Conditions: Homo sapiens, HeLa, 24 h, HeLa cells, nocodazole 0.1 μg/ml together with test compound, decrease of mitotic cells (phospho-histone H3 Ser10)
# Procedure, shortened: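 HeLa cells, plated overnight, were treated 24 h at 37 °C with nocodazole (0.1 μg/ml final) plus test compound (0.005–20 μM, 0.5% DMSO) added at the same time. After fixation, anti-phospho-histone H3 Ser10 and Hoechst staining gave the mitotic cell fraction by imaging. Values came from four-parameter Hill fits.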
row,IC50,SMILES
1,27 nM,"Cc1nsc(Nc2cnc(C(F)(F)F)cn2)c1C(=O)Nc1ccc(OC[C@H]2CCN(CC(F)(F)F)C2)nc1 (racemic) [Example 133, 3-Methyl-N-(6-{[(SR)-1-(2,2,2-trifluoroethyl)pyrrolidin-3-yl]methoxy}pyridin-3-yl)-5-{[5-(trifluoromethyl)pyrazin-2-yl]amino}-1,2-thiazole-4-carboxamide]"
2,14000 nM,"Cc1nsc(Nc2cnc(C(F)(F)F)cn2)c1C(=O)Nc1ccc(OC2CCNCC2)nc1 [Example 6, 3-Methyl-N-[6-(piperidin-4-yloxy)pyridin-3-yl]-5-{[5-(trifluoromethyl)pyrazin-2-yl]amino}-1,2-thiazole-4-carboxamide]"
3,1000 nM,"CC(=O)N1CCC(Oc2ccc(NC(=O)c3c(C)nsc3Nc3cnc(C(F)(F)F)cn3)cn2)CC1 [Example 11, N-{6-[(1-Acetylpiperidin-4-yl)oxy]pyridin-3-yl}-3-methyl-5-{[5-(trifluoromethyl)-pyrazin-2-yl]amino}-1,2-thiazole-4-carboxamide]"
4,24 nM,"Cc1nsc(Nc2cnc(C(F)(F)F)cn2)c1C(=O)Nc1ccc(C(=O)O)cc1 [Example 97, 4-{[(3-Methyl-5-{[5-(trifluoromethyl)pyrazin-2-yl]amino}-1,2-thiazol-4-yl)carbony]-amino}benzoic acid]"
5,1100 nM,"Cc1nsc(Nc2cnc3ccccc3n2)c1C(=O)Nc1cccc(C(=O)NCC(=O)O)c1 [Example 99, N-[3-({[3-Methyl-5-(quinoxalin-2-ylamino)-1,2-thiazol-4-yl]carbonyl}amino)benzoy]-glycine]"
6,1500 nM,"COC(=O)CNC(=O)c1cccc(NC(=O)c2c(C)nsc2Nc2cnc3ccccc3n2)c1 [Example 100, Methyl N-[3-({[3-methyl-5-(quinoxalin-2-ylamino)-1,2-thiazol-4-yl]carbonyl}amino)-benzoyl]glycinate]"
7,1800 nM,"Cc1nsc(Nc2cnc3ccccc3n2)c1C(=O)Nc1cccc(C(=O)N2CCNCC2)c1 [Example 101, 3-Methyl-N-[3-(piperazin-1-ylcarbonyl)phenyl]-5-(quinoxalin-2-ylamino)-1,2-thiazole-4-carboxamide]"
8,4900 nM,"Cc1nsc(Nc2cnc3ccccc3n2)c1C(=O)Nc1cccc(C(=O)N2CCN(C)CC2)c1 [Example 102, 3-Methyl-N-{3-[(4-methylpiperazin-1-yl)carbonyl]phenyl}-5-(quinoxalin-2-ylamino)-1,2-thiazole-4-carboxamide]"
9,13000 nM,"Cc1nsc(Nc2cnc3ccccc3n2)c1C(=O)Nc1cccc(C(=O)N[C@@H](CCC(N)=O)C(=O)O)c1 [Example 103, N^2-[3-({[3-Methyl-5-(quinoxalin-2-ylamino)-1,2-thiazol-4-yl]carbonyl}amino)-benzoyl]glutamine]"
10,1800 nM,"Cc1nsc(Nc2cnc3ccccc3n2)c1C(=O)Nc1cccc(C(=O)N[C@H](C(=O)O)[C@@H](C)OC(C)(C)C)c1 [Example 104, O-tert-Butyl-N-[3-({[3-methyl-5-(quinoxalin-2-ylamino)-1,2-thiazol-4-yl]-carbonyl}amino)benzoyl]threonine]"
11,20000 nM,"Cc1nsc(Nc2cnc3ccccc3n2)c1C(=O)Nc1cccc(C(=O)N[C@H](C(=O)O)[C@@H](C)O)c1 [Example 105, N-[3-({[3-methyl-5-(quinoxalin-2-ylamino)-1,2-thiazol-4-yl]carbonyl}amino)-benzoyl]threonine]"
12,140 nM,"Cc1noc(-c2cccc(NC(=O)c3c(C)nsc3Nc3cnc4ccccc4n3)c2)n1 [Example 106, 3-Methyl-N-[3-(3-methyl-1,2,4-oxadiazol-5-yl)phenyl]-5-(quinoxalin-2-ylamino)-1,2-thiazole-4-carboxamide]"
13,11 nM,"Cc1nsc(Nc2cnc3ccccc3n2)c1C(=O)Nc1cccc(-c2nnc(C(C)(C)C)o2)c1 [Example 107, N-[3-(5-tert-Butyl-1,3,4-oxadiazol-2-yl)phenyl]-3-methyl-5-(quinoxalin-2-ylamino)-1,2-thiazole-4-carboxamide]"
14,110 nM,"CNS(=O)(=O)c1ccc(NC(=O)c2c(C)nsc2Nc2cnc3ccccc3n2)cc1 [Example 111, 3-Methyl-N-[4-(methylsulfannoyl)phenyl]-5-(quinoxalin-2-ylamino)-1,2-thiazole-4-carboxamide]"
15,230 nM,"CC(=O)N(C)CCOc1ccc(NC(=O)c2c(C)nsc2Nc2nc3c(C(F)(F)F)cccc3s2)cn1 [Example 112, N-(6-{2-[Acetyl(methyl)amino]-ethoxy}pyridin-3-yl)-3-methyl-5-{[4-(trifluoromethyl)-1,3-benzothiazol-2-yl]amino}-1,2-thiazole-4-carboxamide]"
16,210 nM,"Cc1nsc(Nc2cnc3ccccc3n2)c1C(=O)Nc1cccc(C(=O)N2CCCC2)c1 [Example 113, 3-Methyl-N-[3-(pyrrolidin-1-ylcarbonyl)phenyl]-5-(quinoxalin-2-ylamino)-1,2-thiazole-4-carboxamide]"
17,210 nM,"Cc1nsc(Nc2cc(C#N)ccn2)c1C(=O)Nc1cccc(C(=O)N2CCCC2)c1 [Example 114, 5-[(4-Cyanopyridin-2-yl)amino]-3-methyl-N-[3-(pyrrolidin-1-ylcarbonyl)phenyl]-1,2-thiazole-4-carboxamide]"
18,1200 nM,"Cc1nsc(Nc2cnc3ccccc3n2)c1C(=O)Nc1ccc(S(C)(=O)=O)cc1 [Example 115, 3-Methyl-N-[4-(methylsulfonyl)phenyl]-5-(quinoxalin-2-ylamino)-1,2-thiazole-4-carboxamide]"
19,810 nM,"CCNS(=O)(=O)c1ccc(NC(=O)c2c(C)nsc2Nc2cnc3ccccc3n2)cc1 [Example 116, N-[4-(Ethylsulfamoyl)phenyl]-3-methyl-5-(quinoxalin-2-ylamino)-1,2-thiazole-4-carboxamide]"
20,4500 nM,"Cc1nsc(Nc2cc(C#N)ccn2)c1C(=O)Nc1ccc(Oc2cccnc2)nc1 [Example 119, 5-[(4-Cyanopyridin-2-yl)amino]-3-methyl-N-[6-(pyridin-3-yloxy)pyridin-3-yl]-1,2-thiazole-4-carboxamide]"
21,340 nM,"Cc1nsc(Nc2cnc(C(F)(F)F)cn2)c1C(=O)Nc1ccc(OCC2CCN(CCF)C2)nc1 (stereo not drawn) [Example 121, N-(6-{[1-(2-fluoroethyl)pyrrolidin-3-yl]methoxy}pyridin-3-yl)-3-methyl-5-{[5-(trifluoromethyl)pyrazin-2-yl]amino}-1,2-thiazole-4-carboxamide]"
22,39 nM,"Cc1nsc(Nc2cnc(C(F)(F)F)cn2)c1C(=O)Nc1ccc(OCC2CCN(CC(F)F)C2)nc1 (stereo not drawn) [Example 122, N-(6-{[1-(2,2-difluoroethyl)pyrrolidin-3-yl]methoxy}pyridin-3-yl)-3-methyl-5-{[5-(trifluoromethyl)pyrazin-2-yl]amino}-1,2-thiazole-4-carboxamide]"
23,12 nM,"Cc1nsc(Nc2cnc(C(F)(F)F)cn2)c1C(=O)Nc1ccc(OCC2CCN(CC(F)(F)F)C2)nc1 (stereo not drawn) [Example 123, 3-Methyl-N-(6-{[1-(2,2,2-trifluoroethyl)pyrrolidin-3-yl]methoxy}pyridin-3-yl)-5-{[5-(trifluoromethyl)pyrazin-2-yl]amino}-1,2-thiazole-4-carboxamide]"
24,24 nM,"Cc1nsc(Nc2cnc(C(F)(F)F)cn2)c1C(=O)Nc1ccc(OCC2CCN(CCC(F)(F)F)C2)nc1 (stereo not drawn) [Example 124, 3-methyl-5-{[5-(trifluoromethyl)pyrazin-2-yl]amino}-N-(6-{[1-(3,3,3-trifluoropropyl)pyrrolidin-3-yl]methoxy}pyridin-3-yl)-1,2-thiazole-4-carboxamide]"

# From patent US20170334899A1, “AMINO-SUBSTITUTED ISOTHIAZOLES” (Bayer Pharma Aktiengesellschaft, priority 2014, published 2017)
